Experimental findings from patent US8686016B2, “Schweinfurthins and uses thereof” (The United States of America, as represented by the …, priority 2009, dated 2014) are described below.

The test system of data set [1] is KR158 cells stably transfected with GFP-actin. Nature of the data set: Cell morphology / actin confocal microscopy, KR158 GFP-actin. The conditions noted are these: 16-18 hrs treatment. The format is cell-based, mouse.
Experimental: Doxorubicin studies: KR158 stably transfected with GFP-actin were treated with 25 and 50 μM doxorubicin for 18 hrs continuously.
Cell Morphology Assays and Confocal Microscopy: To assay cytoskeleton morphology, KR158 cells, mouse primary astrocytes, KR158 clones expressing the NF1-GRD constructs, K14553 cells, and A549 were seeded to cover slips and allowed to reattach overnight. Cells were treated for 18 hours with either the indicated concentrations of SA, or the vehicle control DMSO. The cover slips were fixed in 3.7% paraformaldehyde, permeablized in 0.1% Triton-X100, and stained with Alexa Fluor 488-phalloidin (Invitrogen, Carlsbad, Calif., USA) to detect actin and cells were mounted in Prolong Antifade containing DAPI (Invitrogen) to stain nuclei. The cells were imaged on a LSM510 confocal microscope (Carl Zeiss Inc., Jena, Germany). […] KR158 GFP-actin transfected cells were seeded to 8-well chamber slides, allowed to reattach, and then treated with indicated concentrations of SA. Actin structures were monitored continuously over a 16 hr period using confocal microscopy equipped with a growth chamber (37° C., humidified atmosphere and 5% CO2). To compare SA to Rho/Rock inhibitors, KR158 GFP-actin cells were treated with SA or with the Rho pathway inhibitors Rock inhibitor Y-27632 (Sigma, St. Louis, Mo., USA), and the Rho inhibitor C3 transferase (Cytoskeleton, Inc., Denver, Colo., USA, cat# CT04) for 16 hrs, and then examined by confocal microscopy.
Another data set relates to MPNST T265 cells. Kind of data set: XTT cell proliferation assay, T265. In kind it is cell-based, human. Here is the method:
(§1) XTT Cell Proliferation Assay: Cells were seeded into 96-well plates at a density of 2,000 cells/well and allowed to reattach overnight. Cells were treated with SA, synthetic analogs, camptothecin (NCI Chemotherapeutics Repository, Md., USA), or DMSO control at the indicated concentrations continuously for 48 hours followed by assay in the 96-well plate for relative viable cell number using the dye […] (XTT) and a Wallac-Victor 2 plate reader (Perkin-Elmer, Waltham, Mass., USA). Absorbance was determined at 450 nm with 650 nm as a reference reading. Primary astrocytes were additionally assayed at a 96 hour time point.
Cell lines and culture: Human MPNST cell lines (STS26T and T265) were obtained from the Pediatric Oncology Branch, NCI (Bethesda, Md., USA).

A short description of another data set: Chemical stability. In kind it is physicochemical. The conditions noted are these: compared with the free resorcinols.
For a further data set, the system named is MPNST K16561 cells. Kind of data set: XTT cell proliferation assay, K16561. In kind it is cell-based, mouse. Here is the method:
(§2) Establishment of NPcis MPNST cell lines: Mice were euthanized by CO2 asphyxiation and tumors were dissected. The tumor volume was measured. The tumor was then cut in half, and ½ fixed in 4% PFA. The other half was rinsed, then cut into 24 pieces of approximately equal size. Each piece was diced with a razor blade and placed in 1 well of a 24 well plate, along with 625 μL of Triple Express (Gibco, Grand Island, N.Y., USA) and 5 μL of recombinant DNAse (Roche, Indianapolis, Ind., USA). Tumors were triturated, then incubated at 37° C. in a 5% CO2 incubator for 2-5 hours, with an additional trituration halfway through incubation time. At the end of the incubation, tumor pieces were triturated again, and suspended cells were transferred to 1.5 mL eppendorf tubes. […] Both plates were monitored for cell growth, grown up to 10 cm plates, and frozen down in 10% DMSO. […]
(§3) XTT Cell Proliferation Assay: Cells were seeded into 96-well plates at a density of 2,000 cells/well and allowed to reattach overnight. Cells were treated with SA, synthetic analogs, camptothecin (NCI Chemotherapeutics Repository, Md., USA), or DMSO control at the indicated concentrations continuously for 48 hours followed by assay in the 96-well plate for relative viable cell number using the dye […] (XTT) and a Wallac-Victor 2 plate reader (Perkin-Elmer, Waltham, Mass., USA). […]
In general terms: Tetrazolium assays rely on reduction of a dye to a coloured formazan, in cell work by metabolically active cells.

The test system of the next data set is NCI 60-cell line panel. Kind of data set: NCI 60 cell line assay. The format is cell-based, human.
In a further data set the test system is A549 cells. Nature of the data set: XTT cell proliferation assay, A549. In kind it is cell-based, human. The conditions noted are these: 48 hours. Here is the method: as §1
The test system of the next data set is MPNST K14553 cells. Kind of data set: XTT cell proliferation assay, K14553. In kind it is cell-based, mouse. The method, then:
as §2, §3

As to C3 transferase, in data set [1], the “F-actin staining / stress fibers” value is on record as “dramatic loss of F-actin staining”. On to `COc1cc(/C=C/c2cc(O)c3c(c2)C[C@@H]2C(C)(C)[C@H](O)CC[C@@]2(C)O3)cc(O)c1CC=C(C)C` [5′MeSG, 5′-Methylschweinfurthin G], for which the “inhibition of proliferation (percent viability versus control)” value in the data set on MPNST T265 cells and with MPNST K16561 cells was “sensitive” each time. The chemical stability result in “Chemical stability” is listed as “more stable chemically than the free resorcinols”. In addition, the GI50 result with NCI 60-cell line panel was “low nM range”. On to `COc1cc(/C=C/c2cc(O)c(C/C=C(\C)CCC=C(C)C)c(O)c2)cc2c1O[C@]1(C)C[C@@H](O)[C@@H](O)C(C)(C)[C@H]1C2` [SB, Schweinfurthin B], for which the “inhibition of proliferation (percent viability versus control)” value in the data set with MPNST T265 cells was “sensitive”. Further, the differential cytotoxicity entry in the data set on NCI 60-cell line panel (NCI 60-cell line panel) was “significant differential cytotoxicity”. `CC[C@@]1(O)C(=O)OCc2c1cc1n(c2=O)Cc2cc3ccccc3nc2-1` [camptothecin, reference compound]: the “inhibition of proliferation (percent viability versus control)” value in the data set with A549 cells was “sensitive”. As for `CC(C)=CCC/C(C)=C/Cc1c(O)cc(/C=C/c2cc(O)c3c(c2)C[C@@H]2C(C)(C)[C@H](O)CC[C@@]2(C)O3)cc1O` [3dSB, 3-Deoxyschweinfurthin B], the “inhibition of proliferation (percent viability versus control)” value in the data set on MPNST K14553 cells was “sensitive”.

Take `C[C@@H](N)[C@H]1CC[C@H](C(=O)Nc2ccncc2)CC1` [Y-27632, reference compound]: in data set [1], the “F-actin staining / stress fibers” value is “dramatic loss of F-actin staining”. On to `COc1cc(/C=C/c2cc3c(c(OC)c2)O[C@]2(C)C[C@@H](O)[C@@H](O)C(C)(C)[C@H]2C3)cc(O)c1CC=C(C)C` [5′MeSE, 5′-Methylschweinfurthin E], for which the “inhibition of proliferation (percent viability versus control)” value in the data set with MPNST T265 cells is reported as “sensitive”. Moreover, the chemical stability result in the data set “Chemical stability” is on record as “more stable chemically than the free resorcinols”. Besides, the GI50 entry with NCI 60-cell line panel was “low nM range”. In the case of `COc1cccc2c1C(=O)c1c(O)c3c(c(O)c1C2=O)C[C@@](O)(C(=O)CO)C[C@@H]3O[C@H]1C[C@H](N)[C@H](O)[C@H](C)O1` [doxorubicin, reference compound], the “F-actin staining / stress fibers” value in data set [1] is reported as “retained stress fibers”.
